The results in this text go back to patent US6384222B1, “N-benzenesulfonyl-L-proline compounds, preparation method and method for using the compounds in therapy” (Fournier Industrie et Sante, priority 1997, dated 2002).

Assay [1] addresses T1, bradykinin B2 receptor (Cavia porcellus, UniProt O70526).
T1 construct: Ileum segments are isolated from male guinea-pigs; from tissue; host or cells: guinea-pig ileum (Dunkin-Hartley strain; animals from Iffa Credo)
T1 sequence (O70526 1-372): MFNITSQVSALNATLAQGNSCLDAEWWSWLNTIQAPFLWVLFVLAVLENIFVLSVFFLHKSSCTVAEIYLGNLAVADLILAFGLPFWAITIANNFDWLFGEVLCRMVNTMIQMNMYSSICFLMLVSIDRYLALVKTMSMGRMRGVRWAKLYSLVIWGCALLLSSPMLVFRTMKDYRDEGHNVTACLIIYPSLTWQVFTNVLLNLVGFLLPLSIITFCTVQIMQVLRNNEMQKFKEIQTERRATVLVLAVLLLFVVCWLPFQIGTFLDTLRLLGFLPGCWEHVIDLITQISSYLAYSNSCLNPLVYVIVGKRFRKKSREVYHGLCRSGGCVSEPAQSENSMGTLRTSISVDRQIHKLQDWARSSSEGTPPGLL
Briefly: Antagonism of bradykinin-induced B2 receptor activation on guinea-pig ileum (pKB, Pruneau et al.). Particulars: antagonism of bradykinin at B2 receptor. An excerpt: The compounds according to the invention have an antagonistic effect towards the bradykinin B2 receptor (they inhibit the activation of the B2 receptors which is induced by bradykinin). […] The experimental results, evaluated by the pKB described in the above publication, are reported in the summary Table.

Assay [2] has as its target T1, bradykinin B2 receptor. Description: Inhibition of [3H]-bradykinin binding to guinea-pig ileum membranes. Particulars: test compound 10^-6 M, [3H]-bradykinin 120 pM, 90 min at 20° C. As for the experimental part:
The following pharmacological test is used: Ileum segments are isolated from male guinea-pigs [of the Dunkin-Hartley strain (Iffa Credo, l'Arbresle, France)] and ground in the following TES buffer: TES 25 mM, 1,10-phenanthroline 1 mM (pH 6.8), bacitracin 140 μg/ml, BSA 1 g/l. The membranes are then isolated by centrifugation (18,000 rpm; 20 min 4° C.). The binding studies are carried out in this TES buffer using [^3H]-bradykinin (120 pM) and 50 μg of membrane protein per test (final volume 500 μl) with an equilibrium time of 90 min at 20° C. The percentage inhibition of the binding of [^3H]-bradykinin is then determined in the presence of one of the test compounds according to the invention at a concentration of 10^−6 M.
The results obtained from these tests (shown as “activity”) are collated in Table I below with reference to the Examples given in the description. In this Table, the meaning of the heterocyclic radicals Q is given in the notes and the nature of the salts is indicated by the abbreviations Chl in the case of a hydrochloric acid salt and Ms in the case of a methanesulfonic acid salt.

The pKB is the negative decadic logarithm of the KB, by convention in mol/L. A lower pKB goes with a high KB.

`CS(=O)(=O)O.CS(=O)(=O)O.Cc1cc(=O)n2cccc(OCc3c(Cl)ccc(S(=O)(=O)N4CCC[C@H]4C(=O)NCCCNC(=O)c4ccc(C(=N)N)cc4)c3Cl)c2n1` [Example 30, 1-[[3-[[2-Methyl-4H-pyrido[1,2-a]pyrimidin-9-yl-4-one]oxymethyl]-2,4-dichlorophenyl]sulfonyl]-N-[3-[[4-(aminoiminomethyl)benzoyl]amino]propyl]-2(S)-pyrrolidinecarboxamide Bis(methanesulfonate)] displayed a pKB on bradykinin B2 receptor [1] of 7.9. Besides, the “Activity % (percentage inhibition of the binding of [3H]-bradykinin)” value at bradykinin B2 receptor [2] came out at 99.3%.

`CS(=O)(=O)O.CS(=O)(=O)O.Cc1cc(=O)n2cccc(OCc3c(Cl)ccc(S(=O)(=O)N4CCC[C@H]4C(=O)N4CCN(C(=O)c5ccc(C(=N)N)cc5)CC4)c3Cl)c2n1` [Example 33] had a pKB on bradykinin B2 receptor [1] of 7.8. At bradykinin B2 receptor [2], the “Activity % (percentage inhibition of the binding of [3H]-bradykinin)” value was 96%.

For the compound `CS(=O)(=O)O.CS(=O)(=O)O.Cc1nc2c(OCc3c(Cl)ccc(S(=O)(=O)N4CCC[C@H]4C(=O)NCCCNC(=O)c4ccc(C(=N)N)cc4)c3Cl)cccn2c1Cl` [Example 38, 1-[[3-[[3-Chloro-2-methylimidazo[1,2-a]pyridin-8-yl]oxymethyl]-2,4-dichlorophenyl]sulfonyl]-N-[3-[[4-(aminoimiomethyl)benzoyl]amino]propyl]-2(S)-pyrrolidinecarboxamide Bis(methanesulfonate)], the “Activity % (percentage inhibition of the binding of [3H]-bradykinin)” value at bradykinin B2 receptor [2] worked out at 100%.

Take `CS(=O)(=O)O.CS(=O)(=O)O.Cc1nc2c(OCc3c(Cl)ccc(S(=O)(=O)N4CCC[C@H]4C(=O)N4CCN(C(=O)c5ccc(C(=N)N)cc5)CC4)c3Cl)cccn2c1Cl` [Example 41]: the “Activity % (percentage inhibition of the binding of [3H]-bradykinin)” value on bradykinin B2 receptor [2] came to 100%.

Regarding `CC(=O)c1c(C)nc2c(OCc3c(Cl)ccc(S(=O)(=O)N4CCC[C@H]4C(=O)NCCCNC(=O)c4ccc(C(=N)N)cc4)c3Cl)cccn12.CS(=O)(=O)O.CS(=O)(=O)O` [Example 44, 1-[[3-[[3-Acetyl-2-methylimidazo[1,2-a]pyridin-8-yl]oxymethyl]-2,4-dichlorophenyl]sulfonyl]-N-[3-[[4-(aminoiminomethyl)benzoyl]amino]propyl]-2(S)-pyrrolidinecarboxamide Bis(methanestilfonate)], the “Activity % (percentage inhibition of the binding of [3H]-bradykinin)” value at bradykinin B2 receptor [2] is on record as 100%.
